Results taken from US20110294144A1, “SCREENING METHOD” (priority 2008, published 2011).
pIC50: −log10 of the molar value.

Assays:
PRKX [1] = biological target: T1, PRKX (Homo sapiens, UniProt P51817); conditions: non-patent document 3; cited from earlier work
T1 sequence (P51817 1-358): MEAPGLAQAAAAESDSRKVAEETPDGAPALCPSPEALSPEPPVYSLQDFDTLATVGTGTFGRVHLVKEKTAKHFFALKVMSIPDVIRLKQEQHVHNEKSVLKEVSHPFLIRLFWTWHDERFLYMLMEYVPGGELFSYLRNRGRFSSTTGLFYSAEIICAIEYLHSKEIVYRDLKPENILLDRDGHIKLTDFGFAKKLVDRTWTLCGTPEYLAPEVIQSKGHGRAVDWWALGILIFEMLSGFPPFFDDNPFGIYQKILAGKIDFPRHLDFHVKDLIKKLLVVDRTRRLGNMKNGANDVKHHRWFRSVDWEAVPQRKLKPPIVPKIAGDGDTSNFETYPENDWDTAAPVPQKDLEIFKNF

PRKX [2] = biological target: T1, PRKX; assay: Western blot of S214 phosphorylated tau in H4-tau cells transfected with PRKX expression plasmid; format: cell-based; set-up: using change-1F and hPRKX-1R as primers to give mutant PRKX full-length DNA; expressed in transfected cells; host or cells: H4-tau cells (human H4 neuroglial cells stably expressing human tau), transiently transfected with pPRKXkai (pTARGET vector); conditions: 10 μM H-89 added 2 hr before cell recovery
Method: pFB-Neo-CMV-tau plasmid obtained by inserting a DNA fragment containing a wild-type human tau gene bound at the downstream of a CMV promoter into a multicloning site of pFB-neo vector (Stratagene) was transferred into H4 neuroglial cells according to the instructions of ViraPort(R) Retroviral Gene Expression System (Stratagene), and a cell confirmed to show expression of tau was used as a H4-tau cell. […] After transcription to a PVDF membrane, Western blot was performed using, as a primary antibody, an anti-S214 phosphorylated tau antibody (BioSource) for the detection of S214 phosphorylated tau, an Ab-3 antibody (Lab Vision) for the detection of total tau, and […], and according to the instructions of ECL Advance Western Blotting Detection Kit (Amarsham Bioscience), and each protein was detected by LAS-1000 plus lumino image analyzer (Fujifilm). […] The tranfected cell was dissolved in a cell lysis buffer (BioSource), the amount of S214 phosphorylated tau was measured using a human pS214 tau ELISA kit (BioSource), the amount of total tau was measured using a human total tau ELISA kit (BioSource), each according to the instructions, and the amount of phosphorylated tau in the total tau was examined. […]

PRKX [3] = biological target: T1, PRKX; assay: Cell-free tau S214 phosphorylation by recombinant PRKX protein, Western blot; format: biochemical; set-up: purchased Invitrogen; conditions: 30° C., 60 min
Method: To a reaction mixture (40 mM Tris-HCl (pH 7.5), 20 mM MgCl2, 0.1 mg/ml BSA, 25 μl) containing recombinant PRKX protein (Invitrogen, 4 μg/ml) and recombinant tau protein (Wako Pure Chemical Industries, Ltd., 40 μg/ml) was added H-89 solution (40 mM Tris-HCl (pH 7.5), 0.1% DMSO, 20 mM MgCl2, 0.1 mg/ml BSA, 5 μl) to a concentration during reaction of 1 or 0.1 μM. As a control, 40 mM Tris-HCl (pH 7.5), 0.1% DMSO, 20 mM MgCl2, 0.1 mg/ml BSA solution (5 μl) were added. 25 μM ATP solution (40 mM Tris-HCl (pH 7.5), 20 mM MgCl2, 0.1 mg/ml BSA) was added by 20 μl to start the reaction and the mixture was left standing at 30° C. for 60 min. An SDS sample buffer was added to quench the reaction, the protein was separated using NuPAGE 4-12% Bis-Tris gel and transferred to a PVDF membrane. Western blot was performed using an anti-S214 phosphorylated tau antibody as a primary antibody and ECL Advance Western Blotting Detection Kit, and S214 phosphorylated tau was quantified by LAS-1000 plus lumino image analyzer. […] By the addition of H-89 at a final concentration of 1 and 0.1 μM, the tau S214 phosphorylation reaction decreased to 5% and 52%, respectively, of that without the addition.

PRKX [4] = biological target: T1, PRKX; assay: pS214 tau / total tau ELISA in PRKX-transfected H4-tau cells; format: cell-based; set-up: using change-1F and hPRKX-1R as primers to give mutant PRKX full-length DNA; expressed in transfected cells; host or cells: H4-tau cells (human H4 neuroglial cells stably expressing human tau), transiently transfected with pPRKXkai (pTARGET vector); conditions: H-89 10-0.1 μM, 2 hr, pPRKXkai, read-out: IC50 of suppression of the amount of tau S214 phosphorylation (ELISA, phosphorylated tau in total tau)
Method: pPRKXkai and pTARGET vectors were each transferred into H4-tau cells cultured overnight in a DMEM medium containing 10% FBS, using a Fugene6 transfection reagent. One day later, H-89 was added at a concentration of 10-0.1 μM. 2 hr later, the cells were dissolved in a cell lysis buffer, the amount of S214 phosphorylated tau was measured using a human pS214 tau ELISA kit, the amount of the total tau was measured using a human total tau ELISA kit, and the amount of phosphorylated tau in the total tau was examined. As a result, the amount of tau S214 phosphorylation was suppressed at an IC50 value of 0.7 μM.

[5] = system: mouse primary nerve cells infected with PRKX overexpression lentivirus; assay: Neurite elongation (MAP2 staining) in mouse primary nerve cells infected with PRKX overexpression lentivirus; format: cell-based; conditions: DIV14 mouse primary nerve cells, PRKX lentivirus MOI=2, forskolin 10 μM 2 days
Method: DIV14 mouse primary nerve cells were plated in a 48 well plate at a concentration of 3.5×10^3 cells/well and infected with PRKX or D172A overexpression lentivirus at MOI=2. Four days after the infection, forskolin was added at a concentration of 10 μM, and the cells were cultured for 2 days. The cells were fixed, nerve cell was labeled with anti-MAP2 monoclonal antibody as a primary antibody, anti-MAP2 antibody was stained with anti-mouse Alexa Fluor 488-labeled secondary antibody, and they were photographed by Discovery-1. The neurite elongation was measured by a metamorph software based on the images taken by Discovery-1. As a result, the decrease of the neurite elongation found with the PRKX overexpression lentivirus was suppressed by 76% by H-89.

PRKX [6] = biological target: T1, PRKX; assay: In-cell infrared fluorescence imaging (Odyssey) of S214 phosphorylated tau and total tau in PRKX-transfected H4-tau cells; format: cell-based; set-up: using change-1F and hPRKX-1R as primers to give mutant PRKX full-length DNA; expressed in transfected cells; host or cells: H4-tau cells (human H4 neuroglial cells stably expressing human tau), transiently transfected with pPRKXkai (pTARGET vector); conditions: H-89 10-0.1 μM, 2 hr; H4-tau cells in 96 well plate, pPRKXkai; read-out: IC50 of suppression of the amount of tau S214 phosphorylation (infrared fluorescence imaging)
Method: H4-tau cells were plated in a DMEM medium containing 10% FBS in a 96 well plate at a concentration of 1×10^4 cells/well and, the next day, pPRKXkai and pTARGET vectors were each transferred thereinto using a Fugene6 transfection reagent. One day later, H-89 was added to the medium at a concentration of 10−0.1 μM. 2 hr later, the cells were fixed with 4% para-formaldehyde (Wako Pure Chemical Industries, Ltd.), washed with phosphate buffer, and blocked with phosphate buffer containing 1.5% BSA (Sigma Aldrich) and 0.1% Triton X-100 (Wako Pure Chemical Industries, Ltd.). Thereafter, as a primary antibody, an anti-S214 phosphorylated tau antibody was used to label phosphorylated tau and an anti-tau monoclonal antibody HT-7 (Pierce Biotechnology) was used to label total tau. After washing, they were reacted with an anti-rabbit Alexa Fluor 680-labeled secondary antibody (Invitrogen) and an anti-mouse IRD800CW-labeled secondary antibody (Wako Pure Chemical Industries, Ltd.), as secondary antibodies. After washing, the amounts of S214 phosphorylated tau and total tau were detected using 2 fluorescence system infrared fluorescence Imager Odyssey (ALOKA CO., LTD.). As a result, the amount of tau S214 phosphorylation was suppressed at an IC50 value of 0.7 μM.

[7] = system: H4 cells infected with PRKX overexpression lentivirus; assay: Cell death (DAPI positive cell count) in H4 cells infected with PRKX overexpression lentivirus; format: cell-based, human; conditions: PRKX lentivirus MOI=1
Method: H4 cells were plated in a 48 well plate at a concentration of 3.5×10^3 cells/well and, the next day, infected with PRKX or lacZ overexpression lentivirus at MOI=1. Two days later, H-89 was added at 3 or 10 μM. The next day, the cells were fixed, and the nucleus was stained with DAPI. DAPI positive cells were photographed by Discovery-1, and the number of DAPI positive cells was counted from the images by a Metamorph software. […] The cell death was suppressed by 29% or 46% by the addition of 3 μM or 10 μM H-89.

[8] = system: H4-tau cells infected with PRKX overexpression lentivirus; assay: Thioflavin S positive cell count (tau aggregation) in H4-tau cells infected with PRKX overexpression lentivirus; format: cell-based, human; conditions: 3 μM H-89, added three days after infection; PRKX lentivirus MOI=2.5
Method: H4-tau cells were plated in a 24 well plate at a concentration of 1×10^5 cells/well and, the next day, infected with PRKX or lacZ overexpression lentivirus at MOI=1 or 2.5. Three days later, H-89 was added to a concentration of 3 μM. The next day, the cells fixed with 4% para-formaldehyde were washed with phosphate buffer, and blocked with phosphate buffer containing 1.5% BSA and 0.1% Triton X-100. Thereafter, the cells were stained by using S214 phosphorylated tau, and anti-S214 phosphorylated tau or total tau antibody as a primary antibody and anti-rabbit Alexa Fluor 594-labeled secondary antibody as a secondary antibody. Thereafter, the cells were left standing in 0.005% aqueous thioflavin S (Sigma Ltd.) solution for 5 min, and washed twice with 70% ethanol and once with water. Furthermore, the nucleus was stained with DAPI. The stained cells were photographed by Discovery-1, and the number of DAPI positive cells and the number of thioflavin S positive cells were counted by metamorph software (Molecular Device) based on the images taken by Discovery-1. In the PRKX infected well, the number of cells stained with thioflavin S having a β sheet structure increased 2-fold at MOI=1 and 5.2-fold at MOI=2.5 as compared to lacZ infected well. By containing with a tau specific antibody, almost all thioflavin S positive images were contained with tau and S214 phosphorylated tau. […]

[9] = system: mouse primary nerve cells infected with PRKX overexpression lentivirus; assay: Immunostaining of S214 phosphorylated tau in mouse primary nerve cells infected with PRKX overexpression lentivirus; format: cell-based; conditions: DIV12 mouse primary nerve cells, PRKX lentivirus MOI=2
Source text: DIV12 mouse primary nerve cells plated in a 48 well plate at a concentration of 3.5×10^3 cells/well were infected with PRKX overexpression lentiviruses at MOI=2. Two days later, the cells were fixed with 4% para-formaldehyde, washed with phosphate buffer, and blocked with a phosphate buffer containing 1.5% BSA and 0.1% Triton X-100. Thereafter, as a primary antibody, an anti-S214 phosphorylated tau antibody was used to label phosphorylated tau, and an anti-MAP2 monoclonal antibody (Chemicon International) was used to label nerve cells. After washing, anti-S214 phosphorylated tau antibody was stained with anti-rabbit alexafluoro594-labeled secondary antibody, and anti-MAP2 antibody was stained with anti-mouse alexafluoro488-labeled secondary antibody (Invitrogen), and they were photographed using Discovery-1. As a result, the amount of tau S214 phosphorylation decreased due to H-89.

## O=S(=O)(NCCNC/C=C/c1ccc(Br)cc1)c1cccc2cnccc12 [H-89]
PRKX [1]
  inhibition of PRKX: inhibit PRKX
PRKX [2]
  enhanced S214 phosphorylation of tau (Western blot): enhanced phosphorylation was not found
PRKX [3]; H-89 final concentration 0.1 μM
  tau S214 phosphorylation reaction, % of that without the addition: 52%
PRKX [3]; H-89 final concentration 1 μM
  tau S214 phosphorylation reaction, % of that without the addition: 5%
PRKX [4]
  pIC50: 6.15
[5]
  suppression of the decrease of the neurite elongation: 76%
PRKX [6]
  pIC50: 6.15
[7]; 3 μM H-89
  suppression of cell death: 29%
[7]; 10 μM H-89
  suppression of cell death: 46%
[8]
  suppression of the increase of thioflavin S stained cells: 75%
[9]
  amount of tau S214 phosphorylation: decreased
